Measurements: PubChem BioAssay (NCI)
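Grown in 96-well plates, cells were treated for 48 hours with each compound at five concentrations. Insufficient inhibition: endpoint recorded as highest concentration tested. Definition used: TGI = concentration required for complete inhibition of growth.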 Where a SMILES comes first, the peptide text is derived from it. [ ]: non-standard residue; d: D form. The star is where a group is joined. Cbz = O=C(OCc1ccccc1)*; Aib = CC(C)(N)C(=O)O

What was measured:
Assay in all cases: NCI tumour cell line growth inhibition, 48 h
T-47D breast = tested on: T-47D breast
OVCAR-3 ovarian = tested on: OVCAR-3 ovarian
SNB-75 CNS = tested on: SNB-75 CNS
SR leukemia = tested on: SR leukemia
TK-10 renal = tested on: TK-10 renal
OVCAR-8 ovarian = tested on: OVCAR-8 ovarian
UACC-257 melanoma = tested on: UACC-257 melanoma
DU-145 prostate = tested on: DU-145 prostate
HCT-116 colon = tested on: HCT-116 colon
DMS 273 small cell lung = tested on: DMS 273 small cell lung
SNB-78 CNS = tested on: SNB-78 CNS

Measured: TGI

Nc1ccn(CC(O)c2cc3ccccc3[nH]2)c(=O)n1 (stereo unspecified)
> 100 µM: T-47D breast | OVCAR-3 ovarian | SNB-75 CNS | SR leukemia | TK-10 renal | OVCAR-8 ovarian | UACC-257 melanoma | DU-145 prostate | HCT-116 colon

O=C1C=CC(=O)c2c(O)c(N(CCCl)CCCl)c(Cl)c(O)c21
> 10 µM: SNB-75 CNS | SR leukemia | DU-145 prostate
6.57 µM: T-47D breast
5.68 µM: HCT-116 colon
7.25 µM: OVCAR-3 ovarian
4.93 µM: TK-10 renal
6.9 µM: OVCAR-8 ovarian
5.23 µM: UACC-257 melanoma

O=C(O)C1CSC2(CCCN(Cc3ccccc3)C2)N1 (stereo unspecified)
34.4 µM: SR leukemia
> 100 µM: T-47D breast | OVCAR-3 ovarian | SNB-75 CNS | TK-10 renal | OVCAR-8 ovarian | UACC-257 melanoma | DU-145 prostate | HCT-116 colon

CSc1nc(-c2ccccc2)nc(=[N+]2CCOCC2)s1
67.5 µM: SR leukemia
> 100 µM: DMS 273 small cell lung | OVCAR-3 ovarian | SNB-75 CNS | TK-10 renal | OVCAR-8 ovarian | SNB-78 CNS | HCT-116 colon

Nc1ncc2c(n1)-c1ccccc1OC2
> 100 µM: DMS 273 small cell lung | OVCAR-3 ovarian | OVCAR-8 ovarian | SNB-78 CNS | UACC-257 melanoma | HCT-116 colon
94.4 µM: SNB-75 CNS

CCCCCCCCCCCCCCCCCCNc1nc(=O)n(C2CC(OP(=O)(O)OCC3OC(n4cc(F)c(=O)[nH]c4=O)CC3O)C(CO)O2)cc1F (stereo unspecified)
35.1 µM: SR leukemia
73.3 µM: OVCAR-8 ovarian
> 100 µM: T-47D breast | OVCAR-3 ovarian | SNB-75 CNS | TK-10 renal | UACC-257 melanoma | DU-145 prostate | HCT-116 colon

CCN(CC)CCNc1ccc([N+](=O)[O-])c2nc3ccc(OC)cc3c(N)c12
3.45 µM: OVCAR-8 ovarian
0.972 µM: SR leukemia
2.93 µM: TK-10 renal
3.64 µM: SNB-75 CNS
3.07 µM: DU-145 prostate
0.284 µM: HCT-116 colon
3.97 µM: UACC-257 melanoma
3.55 µM: OVCAR-3 ovarian
3.16 µM: T-47D breast

CC(C)OP(=O)(OC(C)C)/C(C#N)=C/c1c[nH]c2ccccc12
> 100 µM: T-47D breast | OVCAR-3 ovarian | SNB-75 CNS | SR leukemia | TK-10 renal | OVCAR-8 ovarian | UACC-257 melanoma | DU-145 prostate | HCT-116 colon

Nc1ccc(C(=O)O)cc1
> 100 µM: T-47D breast | OVCAR-3 ovarian | SNB-75 CNS | SR leukemia | TK-10 renal | OVCAR-8 ovarian | UACC-257 melanoma | DU-145 prostate | HCT-116 colon

O=S(=O)(O)c1cc(N=[N+]([O-])c2ccc(N=Nc3ccccc3)cc2S(=O)(=O)O)ccc1/C=C/c1ccc(N=[N+]([O-])c2ccc(N=Nc3ccccc3)cc2S(=O)(=O)O)cc1S(=O)(=O)O
> 100 µM: DMS 273 small cell lung | OVCAR-3 ovarian | SNB-75 CNS | OVCAR-8 ovarian | SNB-78 CNS | UACC-257 melanoma | HCT-116 colon

CC(C)(NC(=O)C(C)(C)NC(=O)OCc1ccccc1)C(=O)O (Cbz-[Aib]-[Aib]-OH)
> 100 µM: T-47D breast | OVCAR-3 ovarian | SNB-75 CNS | SR leukemia | TK-10 renal | OVCAR-8 ovarian | UACC-257 melanoma | DU-145 prostate | HCT-116 colon

CCc1n[nH]c(=O)[nH]1
> 100 µM: T-47D breast | OVCAR-3 ovarian | SNB-75 CNS | SR leukemia | TK-10 renal | OVCAR-8 ovarian | UACC-257 melanoma | DU-145 prostate | HCT-116 colon

Cc1ccc(S(=O)(=O)N/N=C\c2c3ccccc3[n+](C)c3ccccc23)cc1
> 100 µM: TK-10 renal | OVCAR-8 ovarian | SNB-78 CNS | UACC-257 melanoma | HCT-116 colon
71.5 µM: OVCAR-3 ovarian
64.7 µM: DMS 273 small cell lung
46 µM: SNB-75 CNS
